US9738634B2, “Heterocyclic amide compound and herbicide” (SYNGENTA PARTICIPATIONS AG, priority 2013, dated 2017)

Tests used:
Type in all cases: in vivo
barnyard grass [1] = experiment: Test Example 1: weedkilling efficacy, preemergent weed treatment in the submerged state; A: barnyard grass
From the text: (§1) Weedkilling efficacy test on preemergent weed treatment in the submerged state
(§2) Alluvial soil was introduced into 1/10,000 Are Wagner pots, and 4 cm depth submerged conditions were created by addition of water and mixing. Seeds of barnyard grass, bulrush and oval-leafed pondweed were mixed and sown into the aforesaid cups, then 2.5 leaf stage rice seedlings were transplanted. On the sowing day, emulsions of compounds of the present invention prepared according to compounding example 2 were diluted with water to give the specified dosages and applied onto the water surface. The plants were grown after placing the cups in a greenhouse at 25 to 30° C. 3 weeks after the pesticide treatment the effect on each type of plant was investigated on the basis of the following assessment criteria.
(§3) A: barnyard grass, B: bulrush, C: oval-leafed pondweed, D: crabgrass, E: green foxtail, F: barnyard grass, G: wild oat, H: black-grass, I: Italian ryegrass, J: common wind-grass, K: Indian mallow, L: redroot pigweed, M: fig-leafed goosefoot, N: chickweed, O: catchweed, p: birds-eye speedwell, a: transplanted rice, b: directly sown rice, c: corn, d: soybean, e: wheat, f: beet, g: rapeseed
(§4) Further, pesticide dosage (g/ha) indicates the concentration regulated such that treatment was with only the stated number of grams (g), when calculated per hectare (ha).

bulrush [2] = experiment: Test Example 1: weedkilling efficacy, preemergent weed treatment in the submerged state; B: bulrush
From the text: as §1, §2, §3, §4

oval-leafed pondweed [3] = experiment: Test Example 1: weedkilling efficacy, preemergent weed treatment in the submerged state; C: oval-leafed pondweed
From the text: as §1, §2, §3, §4

transplanted rice = experiment: Test Example 1: preemergent weed treatment in the submerged state, effect on crop; a: transplanted rice
From the text: as §1, §2, §3, §4

barnyard grass [4] = experiment: Test Example 2: weedkilling efficacy, growth period weed treatment in the submerged state; A: barnyard grass
Protocol: (§5) Weedkilling efficacy test on growth period weed treatment in the submerged state
as §2, with “and the plants were grown by placing in a greenhouse at 25 to 30° C. When the barnyard grass, bulrush and oval-leafed pondweed had reached the 1-2” for “then 2.5”, “stage,” for “stage rice seedlings were transplanted. On the sowing day,”, “surface.” for “surface. The plants were grown after placing the cups in a greenhouse at 25 to 30° C.”, “the” for “the following”, “criteria of test example 1.” for “criteria.”
as §3, §4

bulrush [5] = experiment: Test Example 2: weedkilling efficacy, growth period weed treatment in the submerged state; B: bulrush
Protocol: as §5
as §2, with “and the plants were grown by placing in a greenhouse at 25 to 30° C. When the barnyard grass, bulrush and oval-leafed pondweed had reached the 1-2” for “then 2.5”, “stage,” for “stage rice seedlings were transplanted. On the sowing day,”, “surface.” for “surface. The plants were grown after placing the cups in a greenhouse at 25 to 30° C.”, “the” for “the following”, “criteria of test example 1.” for “criteria.”
as §3, §4

oval-leafed pondweed [6] = experiment: Test Example 2: weedkilling efficacy, growth period weed treatment in the submerged state; C: oval-leafed pondweed
Protocol: as §5
as §2, with “and the plants were grown by placing in a greenhouse at 25 to 30° C. When the barnyard grass, bulrush and oval-leafed pondweed had reached the 1-2” for “then 2.5”, “stage,” for “stage rice seedlings were transplanted. On the sowing day,”, “surface.” for “surface. The plants were grown after placing the cups in a greenhouse at 25 to 30° C.”, “the” for “the following”, “criteria of test example 1.” for “criteria.”
as §3, §4

| Structure (SMILES) | A: barnyard grass, weed kill grade (barnyard grass [1]; treatment dosage 320 g/ha) | B: bulrush, weed kill grade (bulrush [2]; treatment dosage 320 g/ha) | C: oval-leafed pondweed, weed kill grade (oval-leafed pondweed [3]; treatment dosage 320 g/ha) | a: transplanted rice, effect on crop grade (transplanted rice; treatment dosage 320 g/ha) | A (barnyard grass) weedkilling efficacy grade (barnyard grass [4]; treatment dosage 320 g/ha) | B (bulrush) weedkilling efficacy grade (bulrush [5]; treatment dosage 320 g/ha) | C (oval-leafed pondweed) weedkilling efficacy grade (oval-leafed pondweed [6]; treatment dosage 320 g/ha) | A: barnyard grass, weed kill grade (barnyard grass [1]; treatment dosage 252 g/ha) | B: bulrush, weed kill grade (bulrush [2]; treatment dosage 252 g/ha) | C: oval-leafed pondweed, weed kill grade (oval-leafed pondweed [3]; treatment dosage 252 g/ha) | a: transplanted rice, effect on crop grade (transplanted rice; treatment dosage 252 g/ha) | A (barnyard grass) weedkilling efficacy grade (barnyard grass [4]; treatment dosage 252 g/ha) | B (bulrush) weedkilling efficacy grade (bulrush [5]; treatment dosage 252 g/ha) | C (oval-leafed pondweed) weedkilling efficacy grade (oval-leafed pondweed [6]; treatment dosage 252 g/ha) | other results |
| --- | --- | --- | --- | --- | --- | --- | --- | --- | --- | --- | --- | --- | --- | --- | --- |
| CC(C)(C(=O)Nc1cccc(OC(F)F)n1)N1COCN(c2ccccc2)C1=O [A-2-54] | 5 (weed kill ratio 90% or more, (practically complete withering)) | 5 (weed kill ratio 90% or more, (practically complete withering)) | 4 (weed kill ratio 70% or more, less than 90%) | 1 (weed kill ratio 5% or more, less than 20%) | 3 (weed kill ratio 40% or more, less than 70%) | 4 (weed kill ratio 70% or more, less than 90%) | 3 (weed kill ratio 40% or more, less than 70%) | – | – | – | – | – | – | – | – |
| CC(C)(C(=O)Nc1cc(Oc2ccccc2)ccn1)N1COCN(c2ccccc2)C1=O [A-2-55] | – | – | – | – | – | – | – | – | – | – | – | – | – | – | A: barnyard grass, weed kill grade (barnyard grass [1]; treatment dosage 234 g/ha): 5 (weed kill ratio 90% or more, (practically complete withering)); B: bulrush, weed kill grade (bulrush [2]; treatment dosage 234 g/ha): 5 (weed kill ratio 90% or more, (practically complete withering)); C: oval-leafed pondweed, weed kill grade (oval-leafed pondweed [3]; treatment dosage 234 g/ha): 5 (weed kill ratio 90% or more, (practically complete withering)); a: transplanted rice, effect on crop grade (transplanted rice; treatment dosage 234 g/ha): 0 (weed kill ratio 5% or less (practically no effect)); A (barnyard grass) weedkilling efficacy grade (barnyard grass [4]; treatment dosage 234 g/ha): 0 (weed kill ratio 5% or less (practically no effect)); B (bulrush) weedkilling efficacy grade (bulrush [5]; treatment dosage 234 g/ha): 2 (weed kill ratio 20% or more, less than 40%); C (oval-leafed pondweed) weedkilling efficacy grade (oval-leafed pondweed [6]; treatment dosage 234 g/ha): 5 (weed kill ratio 90% or more, (practically complete withering)) |
| Cc1cc(C)nc(NC(=O)C(C)(C)N2COCN(c3ccccc3)C2=O)c1 [A-2-56] | – | – | – | – | – | – | – | 5 (weed kill ratio 90% or more, (practically complete withering)) | 5 (weed kill ratio 90% or more, (practically complete withering)) | 5 (weed kill ratio 90% or more, (practically complete withering)) | 0 (weed kill ratio 5% or less (practically no effect)) | 4 (weed kill ratio 70% or more, less than 90%) | 5 (weed kill ratio 90% or more, (practically complete withering)) | 3 (weed kill ratio 40% or more, less than 70%) | – |
| Cc1cc(NC(=O)C(C)(C)N2COCN(c3ccccc3)C2=O)nc(C(F)(F)F)c1 [A-2-57] | 5 (weed kill ratio 90% or more, (practically complete withering)) | 5 (weed kill ratio 90% or more, (practically complete withering)) | 5 (weed kill ratio 90% or more, (practically complete withering)) | 0 (weed kill ratio 5% or less (practically no effect)) | 5 (weed kill ratio 90% or more, (practically complete withering)) | 5 (weed kill ratio 90% or more, (practically complete withering)) | 5 (weed kill ratio 90% or more, (practically complete withering)) | – | – | – | – | – | – | – | – |
| Cc1cc(C(F)(F)F)cc(NC(=O)C(C)(C)N2COCN(c3ccccc3)C2=O)n1 [A-2-58] | 5 (weed kill ratio 90% or more, (practically complete withering)) | 5 (weed kill ratio 90% or more, (practically complete withering)) | 5 (weed kill ratio 90% or more, (practically complete withering)) | 1 (weed kill ratio 5% or more, less than 20%) | 5 (weed kill ratio 90% or more, (practically complete withering)) | 5 (weed kill ratio 90% or more, (practically complete withering)) | 5 (weed kill ratio 90% or more, (practically complete withering)) | – | – | – | – | – | – | – | – |
| CCOc1cc(C(F)(F)F)cc(NC(=O)C(C)(C)N2COCN(c3ccccc3)C2=O)n1 [A-2-60] | 5 (weed kill ratio 90% or more, (practically complete withering)) | 5 (weed kill ratio 90% or more, (practically complete withering)) | 5 (weed kill ratio 90% or more, (practically complete withering)) | 2 (weed kill ratio 20% or more, less than 40%) | 5 (weed kill ratio 90% or more, (practically complete withering)) | 5 (weed kill ratio 90% or more, (practically complete withering)) | 5 (weed kill ratio 90% or more, (practically complete withering)) | – | – | – | – | – | – | – | – |
| CC(C)(C(=O)Nc1cncc(F)c1)N1COCN(c2ccccc2)C1=O [A-3-01] | – | – | – | – | – | – | – | 5 (weed kill ratio 90% or more, (practically complete withering)) | 5 (weed kill ratio 90% or more, (practically complete withering)) | 4 (weed kill ratio 70% or more, less than 90%) | 1 (weed kill ratio 5% or more, less than 20%) | 1 (weed kill ratio 5% or more, less than 20%) | 5 (weed kill ratio 90% or more, (practically complete withering)) | 2 (weed kill ratio 20% or more, less than 40%) | – |
| CC(C)(C(=O)Nc1cncc(Cl)c1)N1COCN(c2ccccc2)C1=O [A-3-02] | – | – | – | – | – | – | – | 5 (weed kill ratio 90% or more, (practically complete withering)) | 5 (weed kill ratio 90% or more, (practically complete withering)) | 5 (weed kill ratio 90% or more, (practically complete withering)) | 2 (weed kill ratio 20% or more, less than 40%) | 2 (weed kill ratio 20% or more, less than 40%) | 5 (weed kill ratio 90% or more, (practically complete withering)) | 3 (weed kill ratio 40% or more, less than 70%) | – |
| CC(C)(C(=O)Nc1cncc(Br)c1)N1COCN(c2ccccc2)C1=O [A-3-03] | – | – | – | – | – | – | – | 5 (weed kill ratio 90% or more, (practically complete withering)) | 5 (weed kill ratio 90% or more, (practically complete withering)) | 5 (weed kill ratio 90% or more, (practically complete withering)) | 0 (weed kill ratio 5% or less (practically no effect)) | 3 (weed kill ratio 40% or more, less than 70%) | 5 (weed kill ratio 90% or more, (practically complete withering)) | 4 (weed kill ratio 70% or more, less than 90%) | – |
| CC(C)(C(=O)Nc1cc(Br)cnc1F)N1COCN(c2ccccc2)C1=O [A-3-04] | – | – | – | – | – | – | – | 5 (weed kill ratio 90% or more, (practically complete withering)) | 5 (weed kill ratio 90% or more, (practically complete withering)) | 5 (weed kill ratio 90% or more, (practically complete withering)) | 3 (weed kill ratio 40% or more, less than 70%) | 5 (weed kill ratio 90% or more, (practically complete withering)) | 5 (weed kill ratio 90% or more, (practically complete withering)) | 3 (weed kill ratio 40% or more, less than 70%) | – |
| CC(C)(C(=O)Nc1cnc(Cl)c(Cl)c1)N1COCN(c2ccccc2)C1=O [A-3-05] | 3 (weed kill ratio 40% or more, less than 70%) | 5 (weed kill ratio 90% or more, (practically complete withering)) | 5 (weed kill ratio 90% or more, (practically complete withering)) | 0 (weed kill ratio 5% or less (practically no effect)) | 4 (weed kill ratio 70% or more, less than 90%) | 5 (weed kill ratio 90% or more, (practically complete withering)) | 5 (weed kill ratio 90% or more, (practically complete withering)) | – | – | – | – | – | – | – | – |
| CC(C)(C(=O)Nc1cc(Cl)cnc1Cl)N1COCN(c2ccccc2)C1=O [A-3-06] | – | – | – | – | – | – | – | 5 (weed kill ratio 90% or more, (practically complete withering)) | 5 (weed kill ratio 90% or more, (practically complete withering)) | 4 (weed kill ratio 70% or more, less than 90%) | 1 (weed kill ratio 5% or more, less than 20%) | 3 (weed kill ratio 40% or more, less than 70%) | 4 (weed kill ratio 70% or more, less than 90%) | 2 (weed kill ratio 20% or more, less than 40%) | – |
